Assay results reported in patent US8802678B2, “Carbonylated (aza) cyclohexanes as dopamine D3 receptor ligands” (Bioprojet, priority 2006, dated 2014).

Row | SMILES | melting point
1 | N#CCC(=O)N[C@H]1CC[C@H](CCN2CC=C(c3ccccc3)CC2)CC1 | 203 °C
2 | CC(C)OCC(=O)N[C@H]1CC[C@H](CCN2CCN(c3cccc(F)c3F)CC2)CC1.Cl | 215 °C
3 | CC(=O)CN1CCC(CCN2CCN(c3cc(F)cc(F)c3)CC2)CC1.Cl.Cl | 260 °C
4 | CCc1cccc(C2=CCN(CC[C@H]3CC[C@H](NC(=O)CCCC#N)CC3)CC2)c1 | 147 °C
5 | N#CCC(=O)N[C@H]1CC[C@H](CCN2CC=C(c3ccc(F)cc3)CC2)CC1 | 202 °C
6 | CCOCC(=O)N[C@H]1CC[C@H](CCN2CCN(c3ccc(C)c(Cl)c3)CC2)CC1.Cl | 162 °C
7 | CCOCC(=O)N[C@H]1CC[C@H](CCN2CC=C(c3ccc(F)cc3)CC2)CC1 | 122 °C
8 | CC(=O)CN1CCC(CCN2CCN(c3ccc4c(c3)CCC4)CC2)CC1.Cl.Cl | 291 °C
9 | N#CCCCC(=O)N[C@H]1CC[C@H](CCN2CC=C(c3ccc(C(F)(F)F)cc3)CC2)CC1 | 185 °C
10 | CC(=O)CN1CCC(CCN2CC=C(c3cccc4c3CCC4)CC2)CC1.Cl.Cl | 291 °C
11 | CC(=O)CN1CCC(CCN2CCC(c3cccc4c3CCC4)CC2)CC1.Cl.Cl | 339 °C
12 | CC(=O)CN1CCC(CCN2CCN(c3cccc4c3CCCCC4)CC2)CC1.Cl.Cl | 300 °C
13 | N#CCCCC(=O)N[C@H]1CC[C@H](CCN2CC=C(c3cc(F)cc(C(F)(F)F)c3)CC2)CC1 | 114 °C
14 | CC(=O)CN1CCC(CCN2CCN(c3ccc(Cl)c(Cl)c3Cl)CC2)CC1.Cl.Cl | 275 °C
15 | Cc1ccccc1C1=CCN(CC[C@H]2CC[C@H](NC(=O)CCCC#N)CC2)CC1 | 140 °C
16 | COCC(=O)N[C@H]1CC[C@H](CCN2CC=C(c3cccc(C#N)c3)CC2)CC1 | 117 °C
17 | N#Cc1cccc(C2=CCN(CC[C@H]3CC[C@H](NC(=O)CCC(F)(F)F)CC3)CC2)c1 | 177 °C
18 | CC(=O)CN1CCC(CCN2CCN(c3cc(Cl)c(Cl)cc3F)CC2)CC1.Cl.Cl | 309 °C (dec.)

More lines, now with the values ahead:

Row | melting point | SMILES
19 | 148 °C | CCC(=O)C(=O)N1CCC(CCN2CCN(c3cccc(C(F)(F)F)c3)CC2)CC1.Cl
20 | 275 °C | COc1ccc(Cl)cc1N1CCN(CCC2CCN(CC(C)=O)CC2)CC1.Cl.Cl
21 | 230 °C | Cl.N#CCCC(=O)N[C@H]1CC[C@H](CCN2CCN(c3cccc(C(F)(F)F)c3)CC2)CC1
22 | 145 °C | CCOCC(=O)N1CCC(CCN2CCN(c3cccc(C(F)(F)F)c3)CC2)CC1.Cl
23 | 120 °C | Cl.Cl.NC(=O)CN1CCC(CCN2CCN(c3cccc(C(F)(F)F)c3)CC2)CC1
24 | 283 °C | CC(=O)CN1CCC(CCN2CCN(c3cc(C)ccc3Cl)CC2)CC1.Cl.Cl
25 | 268 °C | CC(=O)CN1CCC(CCN2CCN(c3cccc(F)c3)CC2)CC1.Cl.Cl
26 | 246 °C | CCOc1cccc(N2CCN(CCC3CCN(CC(C)=O)CC3)CC2)c1.Cl.Cl
27 | 206 °C | CC(=O)CN1CCC(CCN2CCN(c3ccc(Cl)cc3F)CC2)CC1.Cl.Cl
28 | 230 °C | CC(=O)CN1CCC(CCN2CCN(c3cc(C(F)(F)F)ccc3F)CC2)CC1.Cl.Cl
29 | 256 °C | CC(=O)CN1CCC(CCN2CCN(c3cccc(C(C)(F)F)c3)CC2)CC1.Cl.Cl
30 | 260 °C | CC(=O)CN1CCC(CCN2CCN(c3cccc(S(C)(=O)=O)c3)CC2)CC1.Cl.Cl
31 | 235 °C | CC(=O)CN1CCC(CCN2CCN(c3cccc(-c4ccccc4)c3)CC2)CC1.Cl.Cl
32 | 283 °C | CC(=O)CN1CCC(CCN2CCN(c3ccc(F)cc3C)CC2)CC1.Cl.Cl
33 | 249 °C | CC(=O)CN1CCC(CCN2CCN(c3c(C)cccc3C)CC2)CC1.Cl.Cl
34 | 290 °C | CC(=O)CN1CCC(CCN2CCN(c3ccccc3C(F)(F)F)CC2)CC1.Cl.Cl
35 | 320 to 325 °C | CC(=O)CN1CCC(CCN2CCN(c3cccc(Cl)c3C)CC2)CC1.Cl.Cl
36 | 188 °C | CC(C)(C)OC(=O)N1CCC(CCN2CCN(c3cccc(C(F)(F)F)c3)CC2)CC1.Cl
